Type in all cases: cell-based
The test system of assay [1] is MOLT-4 cells. The assay can be described thus: MOLT-4 cell viability, MTT assay. As to conditions: Homo sapiens, MOLT-4, 48 h. The gist of the method: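 MOLT-4 cells in RPMI 1640 with 10% FBS were exposed to compounds for 48 h at 9 concentrations (3.16-fold dilutions, triplicates). After 4 h with MTT and overnight SDS/HCl solubilisation, absorbance was read at 540 nm. IC50 came from four-parameter fits versus control, as the mean of ≥2 independent experiments.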

The target in a further assay is T1, Bcl-xL (Homo sapiens, UniProt Q07817).
T1 construct: Measured levels of Bcl-xL protein of HCT116 cells treated with the tested compounds; host or cells: HCT116
The assay can be described thus: HCT116 Bcl-xL degradation, capillary-based immunoassay (WES). As to conditions: for DC50: HCT116, 24 h, 9-point serial dilution; for remaining activity at 0.01 µM / remaining activity at 0.1 µM: HCT-116, 24 h, % of untreated cells; for remaining activity at 0.01 µM: HCT116, 10 nM; for remaining activity at 0.1 µM: HCT116, 100 nM. The essentials:
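HCT116 cells treated 24 h with compound at 10/100 nM and/or 9-point dilution (quadruplicates), then lysed. Bcl-xL measured by capillary WES immunoassay, normalized to cofilin and expressed as % of untreated cells. DC50 from four-parameter curve fit.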

For assay [2], the system named is EBC-1 lung cancer cell line. Nature of the assay: EBC-1 cell proliferation, CellTiter-Glo assay. As to conditions: Homo sapiens, 120 h; Ebc-1 cell viability, CTG assay, 5 days of treatment; read-out: CTG 5 day Ebc1 GI50. The gist of the method: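 EBC-1 cells seeded at 1000 per well overnight, then exposed to 10-point dilutions (0.508 nM–10 μM final) for 5 days at 37 °C, in triplicate. ATP luminescence by CellTiter-Glo, normalised to untreated wells; GI50 from four-parameter logistic fit, runs valid only with at least one doubling.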

Another assay has as its target T2, HiBiT-tagged BCL-xL (Homo sapiens, UniProt Q07817).
T2 construct: expressed in transfected cells; host or cells: NCI-H1650 (ATCC No. CRL-5883), engineered HiBiT cell line
The assay can be described thus: NCI-H1650 BCL-xL protein levels, Nano-Glo HiBiT Lytic Detection. As to conditions: NCI-H1650 expressing HiBiT-tagged BCL-xL, overnight incubation, read-out: Bcl-xl HIBIT NCIH1650 DC50. The essentials: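 NCI-H1650 cells expressing HiBiT-tagged BCL-xL (5000/well) were treated overnight at 37° C with 10 concentrations, final 0.508 nM-10 μM, in triplicate. Remaining BCL-xL measured by Nano-Glo HiBiT lytic luminescence, normalized to untreated cells; 50% values by four-parameter logistic fit.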

For assay [3], the system named is MOLT-4 cells. The assay can be described thus: MOLT-4 cell viability, CTG assay. As to conditions: Homo sapiens, MOLT-4, 48 h. The essentials:
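Cells grown in RPMI 1640 with 10% FBS at 37° C, 5% CO2, then exposed to compounds for 48 h (11-point 5-fold dilution, triplicates). ATP measured by CellTiter-Glo luminescence; IC50 from four-parameter fit versus control, mean of ≥2 independent experiments.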

Each structure is given as a SMILES string. Some results are limits rather than exact numbers.

T1 sequence (Q07817 whole entry): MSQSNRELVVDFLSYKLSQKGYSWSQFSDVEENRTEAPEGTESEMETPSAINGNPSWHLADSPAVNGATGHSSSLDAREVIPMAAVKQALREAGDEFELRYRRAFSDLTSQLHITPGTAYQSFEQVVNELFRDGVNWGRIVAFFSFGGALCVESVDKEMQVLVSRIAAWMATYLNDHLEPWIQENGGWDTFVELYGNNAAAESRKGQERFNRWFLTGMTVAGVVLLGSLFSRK
T2 sequence (Q07817 whole entry): as above

Take `Cc1ncsc1-c1ccc(CNC(=O)[C@@H]2C[C@@H](O)CN2C(=O)[C@@H](NC(=O)C2(F)CC2)C(C)(C)C)c(OCCCCCCCCCCCCN(C)CCOC23CC4(C)CC(C)(CC(Cn5ncc(-c6ccc(N7CCCc8c7nnc(Nc7nc9ccccc9s7)c8C)nc6C(=O)O)c5C)(C4)C2)C3)c1` [Example 139, 6-[3-(1,3-benzothiazol-2-ylamino)-4-methyl-6,7-dihydro-5H-pyrido[2,3-c]pyridazin-8-yl]-3-[1-[[3-[2-[12-[2-[[[(2S,4R)-1-[(2S)-2-[(1-fluorocyclopropanecarbonyl)amino]-3,3-dimethyl-butanoyl]-4-hydroxy-pyrrolidine-2-carbonyl]amino]methyl]-5-(4-methylthiazol-5-yl)phenoxy]dodecyl-methyl-amino]ethoxy]-5,7-dimethyl-1-adamantyl]methyl]-5-methyl-pyrazol-4-yl]pyridine-2-carboxylic acid]: in the assay on MOLT-4 cells [1], the IC50 (commonly the midpoint of a concentration-inhibition curve) came out at 3.52 nM. Moreover, the DC50 on Bcl-xL is 0.397 nM; on HiBiT-tagged BCL-xL, 3 nM. In addition, in assay [2], the GI50 (as a rule, the concentration at which growth is held to half of that of the control) was found to be 7 nM.
`Cc1ncsc1-c1ccc([C@H](C)NC(=O)[C@@H]2C[C@@H](O)CN2C(=O)[C@@H](NC(=O)CCCCCCCCCCCN(C)CCOC23CC4(C)CC(C)(CC(Cn5ncc(-c6ccc(N7CCCc8c7nnc(Nc7nc9ccccc9s7)c8C)nc6C(=O)O)c5C)(C4)C2)C3)C(C)(C)C)cc1` [Example 2, 6-[3-(1,3-benzothiazol-2-ylamino)-4-methyl-6,7-dihydro-5H-pyrido[2,3-c]pyridazin-8-yl]-3-[1-[[3-[2-[[12-[[(1S)-1-[(2S,4R)-4-hydroxy-2-[[(1S)-1-[4-(4-methylthiazol-5-yl)phenyl]ethyl]carbamoyl]pyrrolidine-1-carbonyl]-2,2-dimethyl-propyl]amino]-12-oxo-dodecyl]-methyl-amino]ethoxy]-5,7-dimethyl-1-adamantyl]methyl]-5-methyl-pyrazol-4-yl]pyridine-2-carboxylic acid] had an IC50 in the assay on MOLT-4 cells [1] of 1.06 nM. Further, on Bcl-xL, the DC50 was found to be 0.286 nM; the remaining activity (in general, what remains of the control signal, in per cent) at 0.01 µM worked out at 26%; the remaining activity at 0.1 µM is 11%. Also, the 50% growth inhibitory concentration (GI50) in assay [2] stood at 13 nM. Also, on HiBiT-tagged BCL-xL, the DC50 turned out to be 1 nM.
Turning to `Cc1ncsc1-c1ccc(CNC(=O)[C@@H]2C[C@@H](O)CN2C(=O)[C@@H](NC(=O)C2(F)CC2)C(C)(C)C)c(OCCCCCCN(C)CCOC23CC4(C)CC(C)(CC(Cn5ncc(-c6ccc(N7CCCc8c7nnc(Nc7nc9ccccc9s7)c8C)nc6C(=O)O)c5C)(C4)C2)C3)c1` [Example 137, 6-[3-(1,3-benzothiazol-2-ylamino)-4-methyl-6,7-dihydro-5H-pyrido[2,3-c]pyridazin-8-yl]-3-[1-[[3-[2-[6-[2-[[[(2S,4R)-1-[(2S)-2-[(1-fluorocyclopropanecarbonyl)amino]-3,3-dimethyl-butanoyl]-4-hydroxy-pyrrolidine-2-carbonyl]amino]methyl]-5-(4-methylthiazol-5-yl)phenoxy]hexyl-methyl-amino]ethoxy]-5,7-dimethyl-1-adamantyl]methyl]-5-methyl-pyrazol-4-yl]pyridine-2-carboxylic acid], the IC50 in the assay with MOLT-4 cells [1] was found to be 16.2 nM. The DC50 is above 316 nM at Bcl-xL and above 1670 nM on HiBiT-tagged BCL-xL. In addition, the GI50 in assay [2] was 4 nM.
Take `Cc1c(Nc2nc3ccccc3s2)nnc2c1CCCN2c1ccc(-c2cnn(CC34CC5(C)CC(C)(C3)CC(OCCN(C)CCCCCCCCCCOc3ccc6c(c3)C(=O)N(C3CCC(=O)NC3=O)C6=O)(C5)C4)c2C)c(C(=O)O)n1` (stereo not drawn) [Example 60, 6-[3-(1,3-benzothiazol-2-ylamino)-4-methyl-6,7-dihydro-5H-pyrido[2,3-c]pyridazin-8-yl]-3-[1-[[3-[2-[10-[2-(2,6-dioxo-3-piperidyl)-1,3-dioxo-isoindolin-5-yl]oxydecyl-methyl-amino]ethoxy]-5,7-dimethyl-1-adamantyl]methyl]-5-methyl-pyrazol-4-yl]pyridine-2-carboxylic acid]: 0.717 nM corresponded to half-maximal inhibition with MOLT-4 cells [1] (IC50). Further, on Bcl-xL, the DC50 is 0.11 nM, the remaining activity at 0.01 µM was determined as 19% and the remaining activity at 0.1 µM was found to be 23%. The GI50 in assay [2] was determined as 1 nM. The DC50 at HiBiT-tagged BCL-xL was above 1670 nM.
`Cc1ncsc1-c1ccc(CNC(=O)[C@@H]2C[C@@H](O)CN2C(=O)[C@@H](NC(=O)C2(F)CC2)C(C)(C)C)c(OCCCCCCCCN(C)CCOC23CC4(C)CC(C)(CC(Cn5ncc(-c6ccc(N7CCCc8c7nnc(Nc7nc9ccccc9s7)c8C)nc6C(=O)O)c5C)(C4)C2)C3)c1` [Example 138, 6-[3-(1,3-benzothiazol-2-ylamino)-4-methyl-6,7-dihydro-5H-pyrido[2,3-c]pyridazin-8-yl]-3-[1-[[3-[2-[8-[2-[[[(2S,4R)-1-[(2S)-2-[(1-fluorocyclopropanecarbonyl)amino]-3,3-dimethyl-butanoyl]-4-hydroxy-pyrrolidine-2-carbonyl]amino]methyl]-5-(4-methylthiazol-5-yl)phenoxy]octyl-methyl-amino]ethoxy]-5,7-dimethyl-1-adamantyl]methyl]-5-methyl-pyrazol-4-yl]pyridine-2-carboxylic acid] showed an IC50 in the assay on MOLT-4 cells [1] of 3.31 nM. For the same molecule, the figures for the DC50 on Bcl-xL and on HiBiT-tagged BCL-xL were 21.2 nM and above 1670 nM, respectively.
As for `Cc1ncsc1-c1ccc(CNC(=O)[C@@H]2C[C@@H](O)CN2C(=O)[C@@H](NC(=O)CCC(=O)N2CCN(CC#Cc3ccc(OCCCc4sc(N5CCCc6c5nnc(Nc5nc7ccccc7s5)c6C)nc4C(=O)O)c(F)c3)CC2)C(C)(C)C)cc1` [Example 21, 2-[3-(1,3-benzothiazol-2-ylamino)-4-methyl-6,7-dihydro-5H-pyrido[2,3-c]pyridazin-8-yl]-5-[3-[2-fluoro-4-[3-[4-[4-[[(1S)-1-[(2S,4R)-4-hydroxy-2-[[4-(4-methylthiazol-5-yl)phenyl]methylcarbamoyl]pyrrolidine-1-carbonyl]-2,2-dimethyl-propyl]amino]-4-oxo-butanoyl]piperazin-1-yl]prop-1-ynyl]phenoxy]propyl]thiazole-4-carboxylic acid], the IC50 in the assay with MOLT-4 cells [1] was 11.5 nM; in the assay on MOLT-4 cells [3] it was 23.6 nM. The remaining activity at 0.01 µM on Bcl-xL was 73%. Also, the remaining activity at 0.1 µM on Bcl-xL was found to be 35%.
As for `Cc1c(Nc2nc3ccccc3s2)nnc2c1CCCN2c1ccc(-c2cnn(CC34CC5(C)CC(C)(C3)CC(OCCN(C)CCOCCNc3cccc6c3C(=O)N(C3CCC(=O)NC3=O)C6=O)(C5)C4)c2C)c(C(=O)O)n1` (stereo not drawn) [Example 9, 6-[3-(1,3-benzothiazol-2-ylamino)-4-methyl-6,7-dihydro-5H-pyrido[2,3-c]pyridazin-8-yl]-3-[1-[[3-[2-[2-[2-[[2-(2,6-dioxo-3-piperidyl)-1,3-dioxo-isoindolin-4-yl]amino]ethoxy]ethyl-methyl-amino]ethoxy]-5,7-dimethyl-1-adamantyl]methyl]-5-methyl-pyrazol-4-yl]pyridine-2-carboxylic acid], half-maximal inhibition in the assay on MOLT-4 cells [1] (IC50) was put at 5.21 nM. For the same molecule, in the assay on MOLT-4 cells [3], the IC50 stood at 12.9 nM. On Bcl-xL, this molecule had a DC50 of 10.5 nM, a remaining activity at 0.01 µM of 61% and a remaining activity at 0.1 µM of 41%.
Consider `Cc1c(Nc2nc3ccccc3s2)nnc2c1CCCN2c1ccc(-c2cnn(CC34CC5(C)CC(C)(C3)CC(OCCN(C)CCCCCCOc3ccc6c(c3)C(=O)N(C3CCC(=O)NC3=O)C6=O)(C5)C4)c2C)c(C(=O)O)n1` (stereo not drawn) [Example 14, 6-[3-(1,3-benzothiazol-2-ylamino)-4-methyl-6,7-dihydro-5H-pyrido[2,3-c]pyridazin-8-yl]-3-[1-[[3-[2-[6-[2-(2,6-dioxo-3-piperidyl)-1,3-dioxo-isoindolin-5-yl]oxyhexyl-methyl-amino]ethoxy]-5,7-dimethyl-1-adamantyl]methyl]-5-methyl-pyrazol-4-yl]pyridine-2-carboxylic acid], for which the values for the IC50 with MOLT-4 cells [1] and in the assay with MOLT-4 cells [3] were 1.15 nM and 3.51 nM, respectively. This molecule returned a remaining activity at 0.01 µM on Bcl-xL of 81%. Besides, on Bcl-xL, the remaining activity at 0.1 µM was 86%.

For the origin of these results see US20240376094A2, “SELECTIVE BCL-XL PROTAC COMPOUNDS AND METHODS OF USE” (Les Laboratoires Servier, priority 2021, published 2024).
